# Measured values reported in US20090275497A1, “METHOD FOR IDENTIFYING MODULATORS OF THE ACTIVITY OF ION-CHANNELS RECEPTORS” (CENTRE NATIONAL DE LA RECHERCHE SCIENTIFIQUE (CNRS), priority 2004, published 2009).
# Tests used:
# [1] = system: oocyte not expressing P2X and GABA receptors; assay: Calcium green fluorescence recording, oocytes expressing no receptors; type: cell-based, Xenopus; conditions: calcium green probe, FIG. 1
# Procedure: (§1) Then, using video-microscopy (Nikon), the fluorescence emitted by oocytes maintained in a standard solution (Ringer solution containing 1.8 mM calcium chloride), perfused at 3 ml/min, has been recorded. […] Variations in fluorescence were analysed using IpLab software.
# [2] = molecular target: T1, rat P2X2 receptors (Rattus norvegicus, UniProt P49653); assay: Calcium green fluorescence recording, oocytes expressing P2X2 receptors alone; type: cell-based; conditions: oocytes expressing only P2X2 receptors, FIG. 2; for fluorescence (calcium influx) on application of the substance alone: calcium green probe
# T1 construct: expressed in transfected cells; host or cells: Xenopus oocytes (nuclear cDNA injection)
# T1 sequence (P49653 1-472): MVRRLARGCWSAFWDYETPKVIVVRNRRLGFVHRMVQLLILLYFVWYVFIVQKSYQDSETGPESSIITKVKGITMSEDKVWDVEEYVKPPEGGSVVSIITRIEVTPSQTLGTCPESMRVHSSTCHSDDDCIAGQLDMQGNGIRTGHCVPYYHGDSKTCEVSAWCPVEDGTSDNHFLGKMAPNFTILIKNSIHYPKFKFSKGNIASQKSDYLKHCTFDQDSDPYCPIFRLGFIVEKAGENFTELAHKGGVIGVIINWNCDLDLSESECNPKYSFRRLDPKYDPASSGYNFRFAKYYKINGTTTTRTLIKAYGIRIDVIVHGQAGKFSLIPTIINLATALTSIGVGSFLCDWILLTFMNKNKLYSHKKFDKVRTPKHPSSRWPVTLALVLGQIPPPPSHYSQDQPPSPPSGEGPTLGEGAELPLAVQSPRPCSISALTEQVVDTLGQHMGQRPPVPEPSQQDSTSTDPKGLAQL
# Procedure: as §1
# [3] = molecular target: T2, P2X2 and GABA-A receptors (rat GABA-A alpha2 beta3) (Rattus norvegicus, UniProt P23576+P63079); type: cell-based
# T2 construct: expressed in transfected cells; host or cells: Xenopus oocytes (nuclear cDNA injection)
# T2 sequence (P23576 29-451): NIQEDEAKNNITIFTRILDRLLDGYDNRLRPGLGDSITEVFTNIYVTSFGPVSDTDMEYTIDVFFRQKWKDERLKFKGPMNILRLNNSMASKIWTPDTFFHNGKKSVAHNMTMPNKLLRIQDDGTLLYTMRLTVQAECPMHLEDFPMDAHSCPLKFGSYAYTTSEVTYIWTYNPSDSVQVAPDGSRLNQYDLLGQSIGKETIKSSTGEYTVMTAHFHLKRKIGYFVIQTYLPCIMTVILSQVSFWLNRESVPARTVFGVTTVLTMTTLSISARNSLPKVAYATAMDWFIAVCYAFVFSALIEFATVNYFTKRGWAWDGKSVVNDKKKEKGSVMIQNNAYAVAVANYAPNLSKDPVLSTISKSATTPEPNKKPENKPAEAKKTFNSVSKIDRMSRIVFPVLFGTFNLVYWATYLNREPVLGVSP
# T2 sequence (P63079 26-473): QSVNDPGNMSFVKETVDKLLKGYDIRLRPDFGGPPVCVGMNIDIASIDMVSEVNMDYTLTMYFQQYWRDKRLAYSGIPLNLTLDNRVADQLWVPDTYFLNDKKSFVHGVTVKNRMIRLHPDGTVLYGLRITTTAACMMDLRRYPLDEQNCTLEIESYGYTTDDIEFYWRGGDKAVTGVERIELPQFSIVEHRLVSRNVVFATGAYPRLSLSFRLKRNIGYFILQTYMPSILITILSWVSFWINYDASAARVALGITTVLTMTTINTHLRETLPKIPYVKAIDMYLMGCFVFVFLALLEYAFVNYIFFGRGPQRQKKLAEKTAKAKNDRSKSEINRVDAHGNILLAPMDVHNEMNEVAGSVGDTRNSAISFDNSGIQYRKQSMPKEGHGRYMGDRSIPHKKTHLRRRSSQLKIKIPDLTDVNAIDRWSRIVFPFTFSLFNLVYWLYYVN
# Procedure: (§2) Variations in fluorescence were analysed using IpLab software.
# [4] = system: P2X2 and GABA-A receptors (rat GABA-A alpha2 beta3); type: cell-based; conditions: for fluorescence of the calcium probe on application of the substance alone: 100 μM, oocytes co-expressing P2X2 and GABA-A receptors, resting potential
# Procedure: as §2
# [5] = oocyte co-expressing GABA-A and P2X2 receptors, FIG. 4
SMILES,modification of the fluorescence on application [1],effect of GABA on the increase in fluorescence induced by ATP ([2]; co-application ATP+GABA),fluorescence (calcium influx) on application of the substance alone [2],"percentage inhibition of the ATP calcium response ([3]; co-application ATP+GABA 100 μM of each, depends on expression ratio of P2X and GABA receptors)","fluorescence intensity when GABA is applied at the peak of the ATP response [3, 5]","fluorescence when application of GABA is stopped during co-application of ATP and GABA [3, 5]",fluorescence of the calcium probe on application of the substance alone [4],"calcium response on co-application ATP+GABA compared with ATP alone ([4]; ATP+GABA 100 μM of each, FIG. 3)"
"NCCCC(=O)O [GABA, gamma-Aminobutyric acid]",No modification,not altered,no effect,20-25%,decrease in fluorescence intensity,increase in fluorescence,does not modify fluorescence intensity,lower calcium response
Nc1ncnc2c1ncn2[C@@H]1O[C@H](COP(=O)(O)OP(=O)(O)OP(=O)(O)O)[C@@H](O)[C@H]1O [ATP],No modification,,transient increase in fluorescence,,,,marked transient increase,
